{
  "source": "patent US20190125786A1",
  "about": "“NOBLE GAS MODULATION OF IL-12” (NOBILIS THERAPEUTICS, INC., priority 2016, published 2019)",
  "key": {"[1]": {"system": "monocytes (adherent peripheral blood mononuclear cells)", "assay": "Suppression of Alzheimer's peptide induced monocyte TNF-alpha production (ELISA)", "assay_type": "cell-based, healthy volunteers", "conditions": "adherent cells cultured 1 hour or 2 hours in 30% xenon by volume; 1 ug/ml LPS and 10 μM Aβ (1-42) for 24 h; supernatant ELISA; FIG. 1", "procedure": "10 ml of heparinized blood was extracted from healthy volunteers and peripheral blood mononuclear cells were isolated by centrifugation over a ficoll gradient. Cells were subsequently washed in 2× volume phosphate buffered saline, and resuspended in RPMI media supplemented with 10% fetal calf serum. Cells were incubated at a concentration of 10 million cells per ml in 6-well plates in a volume of 2 ml per well. Cells were cultured for 24 hours at 37 Celsius in a fully humidified atmosphere with 5% CO2, subsequent to which non-adherent cells were removed by washing with PBS. Adherent cells were subsequently divided into […], one plate incubated at normoxic tissue culture, the second plate cultured for 1 hour in 30% xenon by volume, and the third tissue cultured for 2 hours in 30% volume. Cells were treated with control media, 1 ug/ml LPS and 10 μM of amyloid beta peptide Aβ (1-42) for 24 h. Supernatant was collected and assessed for TNF-alpha production by ELISA."}, "[2]": {"system": "CD1c dendritic cells", "assay": "Suppression of Alzheimer's peptide induced dendritic cell IL-12 production (ELISA)", "assay_type": "cell-based, healthy volunteers", "conditions": "monocyte-derived CD1c dendritic cells; 1 ug/ml LPS and 10 μM Aβ (1-42) for 24 h; supernatant ELISA; FIG. 2", "procedure": "Monocytes from adherent PBMC were isolated as described in Example 1. Dendritic cells were generated by 7 day culture in IL-4 (10 ng/ml) and GM-CSF (20 ng/ml). Media was changed every two days. On day 7, purification of CD1c dendritic cells was performed and cells were cultured in control media, 1 ug/ml LPS and 10 μM of amyloid beta peptide Aβ (1-42) for 24 h. Supernatant was collected and assessed for IL-12 production by ELISA."}},
  "data": [
    {"compound": "[Xe]", "note": "[xenon gas, xenon]", "values": [
      {"measurement": "induced TNF-alpha production", "setting": "[1]", "value": "suppression of induced TNF-alpha production was observed"},
      {"measurement": "induced IL-12 production", "setting": "[2]", "value": "suppression of induced IL-12 production was observed"}
    ]}
  ]
}
